“Also recorded” adds a separate entry of the source.
Columns and labels:
HL-525 cells = experiment: OKM1 reactivity (immunofluorescence); format: cell-based, human; conditions: TPA 3 nM, RA 1 μM or Vit D3 400 nM, percent OKM1 positive cells
Experimental: (§1) HL-60 cells were originally provided by Dr. R. C. Gallo (National Cancer Institute, Bethesda, Md.) (Collins et al., 1978; Huberman & Callaham, 1979). HL-60 cells designated HL-525 were derived by cloning HL-60 cells after subculturing 102 times in the presence of increasing concentrations (up to 3 μM) of TPA at 5- to 8-day intervals (Homma et al., 1986; Mitchell et al., 1986). […] Prior to the experiments described in this study, the HL-525 cells were subcultured more than 20 times in the absence of TPA. Cells were grown in 100-mm tissue culture dishes in RPMI 1640 medium supplemented with 20% fetal bovine serum, penicillin (100 units/ml) and streptomycin (100 μg/ml) (Grand Island Biological Co., NY) at 37° C. in an atmosphere of 5% CO2 in air in a humidified incubator. The 1,25-(OH)2D3(Vit D3) and TPA were dissolved in a final concentration of 0.01% DMSO, and all-trans retinoic acid (RA) was dissolved in 0.1% DMSO in culture medium. […] Control cultures were treated with DMSO at a final concentration of 0.1% in culture medium. For experiments designed to test the effect of DMSO on HL-60 and HL-525 cells, DMSO was added to tissue culture medium at a final concentration of 1%. Stock solutions of CHX (10 mg/ml) were prepared in culture medium. CHX was added at a final concentration of 10 μg/ml. To examine a requirement for protein synthesis on mda-6 gene expression, HL-60 or HL-525 cells were seeded into 150 mm Petri dishes (5×10^5 cells/ml) in 30 ml of medium. CHX was added to a final concentration of 10 μg/ml 15 min prior to the addition of TPA to 3 nM. Cells were harvested at various times after addition of TPA for subsequent RNA isolation and analysis.
(§2) Cell counts were determined by hemocytometer chamber counting. Immunofluorescence tests for reactivity with the OKM1 antibody (Ortho Pharmaceutical Corp., Raritan, N.J.) were performed as previously described (Murao et al., 1983).

HL-60 cells = experiment: OKM1 reactivity (immunofluorescence); format: cell-based, human; conditions: TPA 3 nM, RA 1 μM or Vit D3 400 nM, percent OKM1 positive cells
Experimental: as §1, §2

mda-6 (WAF1/CIP1/SDI1) = format: cell-based, human; conditions: HL-525; TPA 3 nM, Vit D3 400 nM, RA 1 μM; 1 to 12 h test period
Experimental: as §1
RNA was purified by centrifugation through a CsC1 cushion as described by Chirgwin et al. (1979). Ten μg of RNA was denatured with glyoxal/DMSO, electrophoresed on 1.0% agarose gels, transferred to nylon membranes, hybridized to a ^32P-labeled mda-6 probe (Jiang and Fisher, 1993) and then after stripping the membrane hybridized to a ^32P-labeled rat GAPDH probe (Fort et al., 1985), as described previously (Reddy et at., 1991; Su et al., 1991; Jiang et al., 1992). Following hybridization, the filters were washed and exposed for autoradiography (Reddy et al., 1991; Su et al., 1991; Jiang et al., 1992). mda-6 and GAPDH gene expression were also determined by reverse transcription-polymerase chain reaction (RT-PCR) as described (Adollahi et al. 1991; Lin et al., 1994). Total cytoplasmic RNA was treated with 0.5 units DNase (Boehringer-Mannheim Biochemicals)/μg RNA in 15% glycerol, 10 mM Tris, pH 7.5, 2.5 mM MgCl2, 0.1 mM EDTA, 80 mM KC1, 1 mM CaCl2 and 1 unit/ml RNasin (Promega) at 30° C. for 10 min. RNA was extracted with phenol-chloroform, precipitated with sodium acetate/ethanol and RNA pellets were resuspended in diethylpyrocarbonate-treated H2O. One μg of total RNA was reverse transcribed with 200 units of murine leukemia virus reverse transcriptase (Bethesda Research Laboratories) in 20 μl containing 1 mM deoxyribonucleotide triphosphates, 4 mM MgCl2, 10 mM Tris, pH 8.3, 50 mM KC1, 0.001% gelatin and 0.2 μg oligo-dT primer. Samples were diluted to 100 μl with buffer containing 0.2 mM deoxyribonucleotide triphosphates, 2 mM MgCl2, 10 mM Tris, pH 8.3, 50 mM KC1 and 0.001% gelatin. […]

[1] = test system: H0-1 human melanoma cell line; experiment: 96-h growth suppression (cell number by Coulter Counter); format: cell-based; conditions: Table 2; H0-1 cells; degree of initial 96 hr growth suppression versus untreated control
Experimental: FIG. 1A-B Effect of continuous exposure to various growth and differentiation modulating agents on the 96-h growth of the human melanoma cell line, H0-1. Cells were seeded at 5×10^4/35-mm tissue culture plate and 24 h later the medium was changed with the indicated compounds. Cell numbers were determined by Coulter Counter after 96-h growth. Further details can be found in Materials and Methods.
The H0-1 cell line is a melanotic melanoma derived from a person and was used between passage 100 and 125 (6,8,13). H0-1 cells were kindly provided by Dr. Beppino C. Giovanella, Stehlin Foundation for Cancer Research, Houston, Tex. Cultures were grown at 37° C. in a 95% air 5% CO2-humidified incubator in Dulbecco's modified Eagle's medium (DMEM) supplemented with 10% fetal bovine serum (DMEM-10) (Hyclone, Logan, Utah). H0-1 cells were maintained in the logarithmic stage of growth by subculturing (1:5 or 1:10) prior to confluency approximately every 4 to 5 days. […] Total cell numbers were determined after days 4, 7, 14, and 21, using a ZM Coulter Counter, and viable cell numbers were determined by trypan blue dye exclusion (6). […] Increases in cell number (two or more population doublings) after removal of the inducing agent(s) was considered reversible growth suppression. […] Conditioned medium was collected from treated cultures, contaminating cells were removed by centrifugation at 1000 rpm/10 min., and conditioned medium was stored at 4° C. until assayed for gene modulatory activity. Control conditioned medium was obtained as experimental conditioned medium from cells receiving only a medium change 24 hours after plating in the absence of test compound(s) and growth for 72 hours in DMEM-10.

H0-1 cells = experiment: Northern blotting analysis of steady-state mRNA levels; format: cell-based, human; conditions: FIG. 1 concentrations
Experimental: Steady-state levels of specific mRNAs were determined by Northern blotting analysis of total RNA probed with appropriate ^32P-labeled gene probes as described previously (14-16). RNAs were analyzed from cells treated with inducer for 24 hours, treated for 24 hours with inducer followed by growth for 72 hours in the absence of inducer, or treated continuously for 96 hours with the inducer. The concentration of inducing compounds used were the same as those used for growth studies. The effect of conditioned medium on gene expression changes was determined by treating H0-1 cells for 24 hours with a 1:2 dilution of conditioned medium (equal volumes of conditioned medium and DMEM supplemented with 10% fetal bovine serum (DMEM-10) or for 96 hours with a 1:4 dilution of conditioned medium (1 vol. of conditioned medium to 3 vol. of DMEM-10). The probes used in the present study were specific for β-actin (17), γ-actin (17), c-jun (18), c-myc (19), fibronectin (20), gro/MGSA (21), HLA Class I antigen (22), HLA Class II antigen (HLA-DRβ) (22), α5 integrin (23), β1 integrin (24), ISG-15 (25), ISG-54 (25), jun-B (26), and tenascin (27). Northern blots were also probed with a ^32P-labeled GAPDH gene (15) to verify similar mRNA expression under the various experimental conditions. Following hybridization, the filters were washed and exposed for autoradiography.

mda-4 = mda-4 expression (Northern blotting); format: cell-based, human; conditions: H0-1; 96 hours; doses of FIG. 15 legend
Experimental: (§3) The mass excision of the library was performed using ExAssist helper phage as described above. The SOLR strain of Escherichia coli and cDNA phagemids were mixed at 37° C. for 15 min and plated onto LB plates containing ampicillin and IPTG/X-gal. White colonies were chosen at random, isolated and grown in LB medium. Plasmid minireps and restriction enzyme digestions were performed to confirm the presence of inserts. The inserts were isolated and used as robes for Northern blotting analysis (5,25). […] Radiolabeled probes were generated by random oligonucleotide priming (25). Prehybridization, hybridization, posthybridization washes, and autoradiography were performed as described (5,18,25).

mda-5 = mda-5 expression (Northern blotting); format: cell-based, human; conditions: H0-1; 96 hours; doses of FIG. 15 legend
Experimental: as §3

mda-6 = mda-6 expression (Northern blotting); format: cell-based, human; conditions: H0-1; 96 hours; doses of FIG. 15 legend
Experimental: as §3
Total cytoplasmic RNA was isolated and Northern blotting hybridization was performed as described (Reddy et al., 1991; Su et al., 1991; Jiang et al., 1992). Ten μg of RNA was denatured with glyoxal/DMSO, electrophoresed on 1.0% agarose gels, transferred to nylon membranes and hybridized to a ^32P-labeled p53 probe (Baker et al., 1990). The nylon membrane was stripped and hybridized to a ^32P-labeled mda-6 probe (Jiang and Fisher, 1993) and then after a second stripping the membrane was hybridized to a ^32P-labeled rat GAPDH probe (Fort et al., 1985), as described previously (Reddy et al., 1991; Su et al., 1991; Jiang et al., 1992). Following hybridization, the filters were washed and exposed for autoradiography (Reddy et al., 1991; Su et al., 1991; Jiang et al., 1992). mda-6 and GAPDH gene expression were also determined by reverse transcription-polymerase chain reaction (RT-PCR) as described (Adollahi et al., 1991; Lin et al., 1994; Jiang et al., 1994b). Total cytoplasmic RNA was treated with 0.5 units DNase (Boehringer-Mannheim Biochemicals)/μg RNA in 15% glycerol, 10 mM Tris, pH 7.5, 2.5 mM MgCl2, 0.1 mM EDTA, 80 mM KCl, 1 mM CaCl2 and 1 unit/ml RNasin (Promega) at 30° C. for 10 min. RNA was extracted with phenol-chloroform, precipitated with sodium acetate/ethanol and RNA pellets were resuspended in diethylpyrocarbonate-treated H2O. One μg of total RNA was reverse transcribed with 200 units of murine leukemia virus reverse transcriptase (Bethesda Research Laboratories) in 20 μl containing 1 mM deoxyribonucleotide triphosphates, 4 mM MgCl2, 10 mM Tris, pH 8.3, 50 mM KCl, 0.001% gelatin and 0.2 μg oligo-dT primer. Samples were adjusted to 100 μl with buffer containing 0.2 mM deoxyribonucleotide triphosphates, 2 mM MgCl2, 10 mM Tris, pH 8.3, 50 mM KCl and 0.001% gelatin. Fifty pmol of each primer, 1.5 units Taq DNA polymerase (Perkin-Elmer Cetus) were added and samples were covered with mineral oil, heated at 95° C. for 5 min and subjected to 25 cycles of PCR in a Perkin-Elmer Thermal Cycler using 1 min denaturation at 94° C., 2 min annealing at 55° C. and 3 min polymerization at 72° C. After extraction with chloroform, 20 μl of products were electrophoresed, blotted onto nylon filters and hybridized with an mda-6 or GAPDH specific probe. The mda-6 primers were 5′ to 3′ […] (SEQ ID NO:26) and […] (SEQ ID NO:27)(corresponding to nt 1527 to 1546) (GenBank accession number U09579); and the GAPDH primers were 5′ to 3′ […] (SEQ ID NO:28)and […] (SEQ ID NO:29)(corresponding to nt 1070 to 1053) (Tokunaga et al., 1987).

mda-7 = mda-7 expression (Northern blotting, RT-PCR); format: cell-based, human; conditions: H0-1; 96 hours; doses of FIG. 15 legend
Experimental: as §3

mda-8 = mda-8 expression (Northern blotting); format: cell-based, human; conditions: H0-1; 96 hours; doses of FIG. 15 legend
Experimental: as §3

mda-9 = mda-9 expression (Northern blotting); format: cell-based, human; conditions: H0-1; 96 hours; doses of FIG. 15 legend
Experimental: as §3

Molecule	OKM1 reactivity, Days of induction 4 (HL-525 cells) [%]	OKM1 reactivity, Days of induction 6 (HL-525 cells) [%]	OKM1 reactivity, Days of induction 4 (HL-60 cells) [%]	OKM1 reactivity, Days of induction 6 (HL-60 cells) [%]	time of treatment at which mda-6 expression is induced (mda-6 (WAF1/CIP1/SDI1)) [h]	Growth Suppression (reversible) [1]	HLA Class I antigen gene expression (H0-1 cells; 96 h)	HLA Class II antigen gene (HLA-DRβ) expression (H0-1 cells; 96 h)	fibronectin expression (H0-1 cells; 96 h)	induction of gro/MGSA gene expression (H0-1 cells; 96 h)	tenascin expression (H0-1 cells; 96 h)	β1 integrin expression (H0-1 cells; 96 h)	c-jun and jun-B expression (H0-1 cells; 96 hours)	c-myc expression (H0-1 cells; 96 hours)	mda-4 expression (mda-4)	mda-5 expression (mda-5)	mda-6 expression (mda-6)	mda-7 expression (mda-7)	mda-8 expression (mda-8)	mda-9 expression (mda-9)
C=C1/C(=C\C=C2/CCC[C@]3(C)[C@@H]([C@H](C)CCCC(C)(C)O)CC[C@@H]23)C[C@@H](O)C[C@@H]1O [Vit D3, 1,25-(OH)2D3]	84	80	88	95	≤ 2	–	–	–	–	–	–	–	–	–	–	–	–	–	–	–
IFN-γ: Recombinant human immune interferon	–	–	–	–	–	2+ (2+ = ~40% reduction in growth in comparison with untreated control cultures)	enhanced HLA Class I antigen expression	enhanced expression	most effective single agents	did not induce gro/MGSA expression	enhanced tenascin expression	upregulation	increase	increased c-myc expression	Increased expression	Enhanced expression; also recorded: induced	no significant or reduced alteration in expression	No induction in mda-7 expression; also recorded: does not result in significant mda-7 expression	enhanced mda-8 expression; also recorded: increased mda-8 expression	No change in mda-9 expression

— patent publication US7507792B2, “MDA-7 proteins and methods of use thereof” (The Trustees of Columbia University In The City of New York, priority 1993, dated 2009)
